Results on 22 compounds are retold here after ChEMBL document CHEMBL5136982, “Structure-Based Design of Potent, Selective, and Orally Bioavailable VPS34 Kinase Inhibitors” (J Med Chem, 2022).

Data set [1] in a line: Microsomal stability in human liver microsome assessed as clearance at 1.0 uM preincubated for 5 mins followed by NADPH addition measured upto 60 mins by LC-MS/MS analysis. The data set is classed as ADME. Particulars: liver microsomes, time < 65 min. For orientation: Microsomes from liver hold many membrane-bound enzymes, among them those of drug oxidation.
The nature of data set [2]: Microsomal stability in rat liver microsome assessed as clearance at 1.0 uM preincubated for 5 mins followed by NADPH addition measured upto 60 mins by LC-MS/MS analysis. The data set is classed as ADME. Conditions: liver microsomes, time < 65 min.
The nature of data set [3]: Lipophilicity, logD of compound at pH 7.4 by shake flask method. The data set is classed as physicochemical. Conditions: buffer.
The nature of data set [4]: Unbound clearance in Sprague-Dawley rat at 0.5 mg/kg, iv measured upto 8 hrs by LC-MS/MS analysis. Conditions: in vivo. The data set is classed as ADME, organism-based.
Data set [5] in a line: Oral bioavailability in Sprague-Dawley rat at 2 mg/kg measured upto 8 hrs by LC-MS/MS analysis. The data set is classed as ADME, organism-based. Conditions: in vivo.
A short description of data set [6]: Half life in Sprague-Dawley rat at 2 mg/kg, po measured upto 8 hrs by LC-MS/MS analysis. The data set is classed as ADME, organism-based. Conditions: in vivo.
Data set [7] in a line: AUC in Sprague-Dawley rat at 0.5 mg/kg, iv measured upto 8 hrs by LC-MS/MS analysis. More on the design: dose 0.5 mg/kg, time < 8 hrs, route iv. The data set is classed as ADME, organism-based. Conditions: in vivo.
The nature of data set [8]: Volume of distribution at steady state in Sprague-Dawley rat at […] measured upto 8 hrs by LC-MS/MS analysis. The data set is classed as ADME, organism-based. Particulars: in vivo.
Data set [9] can be described thus: Plasma clearance in Sprague-Dawley rat at 0.5 mg/kg, iv measured upto 8 hrs by LC-MS/MS analysis. The data set is classed as ADME, organism-based.

SMILES strings stand for the structures.

Regarding `C[C@@H]1COCCN1c1cc2n(n1)[C@H](C1CC1)C(C)(C)NC2=O`, the CLhep predicted at 1 µM in data set [1] was less than 3.9 mL/min/kg; in data set [2], less than 6.1 mL/min/kg. In addition, the logD – broadly, lipophilicity at a set pH, counting ionised and neutral species – in data set [3] turned out to be 1.5.

With `O=C(Nc1cc(-n2cnc3ccccc32)ccn1)C1CC1`, the CLhep predicted at 1 µM in data set [1] was 19 mL/min/kg; in [2] it was 34 mL/min/kg. Also, in [3], the logD came out at 2.8.

Consider `CC(C)[C@@H]1CNC(=O)c2cc(N3CCOCC3)nn21`, for which the CLhep predicted at 1 µM in [1] is less than 3.9 mL/min/kg; in [2], less than 6.1 mL/min/kg. The compound further returned a logD in [3] of 0.7.

As for `CC(C)[C@@H]1CNC(=O)c2cc(-c3ccnc(NC(=O)C4CC4)c3)nn21`, the CLhep predicted at 1 µM in [1] was less than 3.9 mL/min/kg; in data set [2] it was 22 mL/min/kg. This compound showed a logD in data set [3] of 2.4.

Turning to `C[C@@H]1COCCN1c1cc2n(n1)[C@H](C(C)(C)C)CNC2=O`, the CLhep predicted at 1 µM in [1] was 4.7 mL/min/kg; in data set [2], 24 mL/min/kg. The compound further gave a logD in [3] of 1.4.

Turning to `NC(=O)c1ccccc1Nc1ccnc(NC(=O)C2CC2)c1`, the CLhep predicted at 1 µM is 5 mL/min/kg in data set [1] and 15 mL/min/kg in data set [2]. Also, the logD in [3] came to 1.8.

For `O=C(Nc1cc(-c2ccn3ccnc3c2)ccn1)C1CC1`, the values for the CLhep predicted at 1 µM in [1] and in [2] were 17 mL/min/kg and 40 mL/min/kg, respectively. The logD in data set [3] came out at 2.1.

For the compound `O=C(Nc1cc2cc(-c3nncn3-c3ccccc3Cl)ccc2cn1)C1CC1F` (configuration not stated), the CLhep predicted at 1 µM in data set [1] is 12 mL/min/kg; in data set [2], 7.2 mL/min/kg. For the same compound, the logD in [3] turned out to be 3.1.

Regarding `CC(C)[C@@H]1CNC(=O)c2cc(N3CCOC[C@H]3C)nn21`, the CLhep predicted at 1 µM in data set [1] was less than 3.9 mL/min/kg; in data set [2], 12 mL/min/kg. The same compound gave a CL free in [4] of 19 mL/min/kg. Besides, the bioavailability (commonly dose-corrected exposure relative to a reference, in per cent) in data set [5] was found to be 68%. Also, the log distribution coefficient (logD) in data set [3] came to 1.2.

Take `C[C@@H]1COCCN1c1cc2n(n1)[C@H](C1CCC1)CNC2=O`: the values for the CLhep predicted at 1 µM in [1] and in [2] were less than 3.9 mL/min/kg and 23 mL/min/kg, respectively. Besides, the logD in data set [3] came to 1.5.

Turning to `C[C@@H]1CNC(=O)c2cc(-c3ccnc(NC(=O)C4CC4)c3)nn21`, the CLhep predicted at 1 µM in data set [1] is less than 3.9 mL/min/kg; in data set [2], less than 6.1 mL/min/kg. Besides, the logD in data set [3] is 1.7.

Regarding `C[C@@H]1COCCN1c1cc2n(n1)[C@H](C(F)(F)F)CNC2=O`, the CLhep predicted at 1 µM was less than 3.9 mL/min/kg in data set [1] and 8.5 mL/min/kg in [2]. In addition, in data set [3], the logD came out at 0.8.

In the case of `Cc1cnc(NC(=O)C2CC2)cc1-c1cc2n(n1)[C@H](C(C)C)CNC2=O`, the CLhep predicted at 1 µM in data set [1] is 11 mL/min/kg; in [2], 25 mL/min/kg. In [3], this compound registered a logD of 2.5.

`C[C@@H]1COCCN1c1cc2n(n1)[C@H](C1CC1)C1(CC1)NC2=O`: the CLhep predicted at 1 µM in data set [1] is less than 3.9 mL/min/kg; in data set [2], 11 mL/min/kg. This compound displayed a logD in data set [3] of 1.6.

On to `C[C@@H]1COCCN1c1cc2n(n1)[C@H](C1CC1)[C@H](C1CC1)NC2=O`, for which the CLhep predicted at 1 µM in data set [1] was less than 3.9 mL/min/kg; in [2] it was less than 6.1 mL/min/kg. The log distribution coefficient (logD) in [3] was found to be 1.7.

Consider `C[C@@H]1COCCN1c1cc2n(n1)[C@H](C1CC1)CNC2=O`, for which the CLhep predicted at 1 µM in data set [1] was less than 3.9 mL/min/kg; in data set [2], 11 mL/min/kg. The compound also showed a logD in data set [3] of 1.

On to `C[C@@H]1COCCN1c1cc2n(n1)C[C@H](C(F)(F)F)NC2=O`, for which the CLhep predicted at 1 µM in data set [1] is less than 3.9 mL/min/kg; in data set [2] it was less than 6.1 mL/min/kg. Besides, in data set [3], the logD came out at 1.1.

As for `C[C@@H]1COCCN1c1cc2n(n1)[C@H](C1CCCC1)CNC2=O`, the figures for the CLhep predicted at 1 µM in data set [1] and in [2] were 9.1 mL/min/kg and 28 mL/min/kg, respectively. Moreover, the logD in data set [3] was 1.6.

As to `Cn1ccc(-c2ccnc(NC(=O)C3CC3)c2)cc1=O`, the values for the CLhep predicted at 1 µM in [1] and in data set [2] were 6.4 mL/min/kg and less than 6.1 mL/min/kg, respectively. This compound also returned a logD in [3] of 1.3.

As for `C[C@@H]1NC(=O)c2cc(N3CCOC[C@H]3C)nn2[C@@H]1C1CC1`, the CLhep predicted at 1 µM in data set [1] is less than 3.9 mL/min/kg; in data set [2], 7.8 mL/min/kg. Moreover, the logD in data set [3] was 1.3.

Regarding `C[C@@H]1COCCN1c1cc2n(n1)[C@@H]1CCC[C@@H]1NC2=O`, the half-life (as a rule, the time in which the quantity being followed falls by half) in data set [6] is 1.4 h. For the same compound, the AUC – broadly, concentration integrated over time – at 8 h in data set [7] was 4 µM·h. Moreover, the CLhep predicted at 1 µM in [1] was less than 3.9 mL/min/kg; in data set [2], less than 6.1 mL/min/kg. Moreover, in data set [5], the bioavailability amounted to 61%. The compound also gave a Vdss in data set [8] of 0.83 L/kg. In data set [3], this compound returned a logD of 1. Besides, in [9], the clearance (commonly the volume of plasma or blood freed of the substance per unit of time) is 7.8 mL/min/kg.

Take `C[C@@H]1COCCN1c1cc2n(n1)C(C(C)(C)O)CNC2=O` (single isomer, unassigned): the CLhep predicted at 1 µM is less than 3.9 mL/min/kg in [1] and less than 6.1 mL/min/kg in data set [2].
